Experimental data reported in article PMC4140855, “Production of an Attenuated Phenol-Soluble Modulin Variant Unique to the MRSA Clonal Complex 30 Increases Severity of Bloodstream Infection” (PLoS Pathogens, 2014).

Legend:
Format in all cases: cell-based
human neutrophils = experiment: Chemotaxis of human neutrophils (transwell migration); conditions: synthetic peptides, all tested concentrations, three donors, quadruplicate, compared to PSMα3N22Y
Experimental: Figure 3 PSMα3N22Y has decreased chemotactic activity toward human neutrophils. (A) Chemotaxis of human neutrophils (neutrophil migration) was measured using a transwell system with synthetic peptides at the indicated concentrations. Neutrophils were from three donors and the measurements were performed in quadruplicate. **, p<0.01; ****, p<0.0001. (B) Chemotaxis of human neutrophils tested with culture filtrates (diluted 1∶100) of strains MRSA252 (252, expressing PSMα3N22Y) and 252* (MRSA252 altered to express PSMα3); ****, p<0.0001. Data are from two donors with triplicate measurements. […]
(§1) Human neutrophils were isolated from venous blood of healthy donors as described, [39]. Neutrophil chemotaxis and Ca^2+ flux were determined as previously described, [24]. […] Chemotaxis of neutrophils was determined using a transwell system (Costar) with analysis of neutrophil migration using fluorescence labeling. Calcium fluxes were monitored as a surrogate marker for chemotaxis since it can be measured more robustly and accurately than chemotaxis. For measurement of Ca^2+ fluxes, 5×10^6 neutrophils/ml were labeled with a fluorescent dye and analyzed with a FACScalibur (Becton Dickinson) as described. […] Measurements of 2,000 events were performed and Ca^2+ flux was expressed as relative fluorescence corrected for buffer controls. […]

FPR1 = target: T1, FPR1 (Homo sapiens, UniProt P21462); experiment: Ca2+ flux in HL60 cells stably transfected with FPR1
T1 construct: expressed in transfected cells; host or cells: HL60 cells, stably transfected
T1 sequence (P21462 1-350): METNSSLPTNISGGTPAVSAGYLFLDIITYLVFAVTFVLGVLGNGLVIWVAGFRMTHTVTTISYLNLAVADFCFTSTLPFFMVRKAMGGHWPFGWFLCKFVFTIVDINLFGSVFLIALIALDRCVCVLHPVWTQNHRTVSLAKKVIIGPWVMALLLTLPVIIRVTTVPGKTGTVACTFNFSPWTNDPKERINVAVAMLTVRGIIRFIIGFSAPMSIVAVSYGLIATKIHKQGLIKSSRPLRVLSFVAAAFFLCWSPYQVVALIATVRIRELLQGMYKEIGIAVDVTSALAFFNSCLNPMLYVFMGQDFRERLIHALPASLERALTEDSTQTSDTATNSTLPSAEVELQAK
Experimental: (§2) Next, we analyzed Ca^2+ flux as a general measure to test for neutrophil activation, as used in previous studies. HL60 cells stably transfected with different FPR receptor genes were used to determine which FPR receptors are differentially activated by PSMα3 versus PSMα3N22Y (Fig. 4A). […] At a peptide concentration of 100 nM, we observed a difference of ∼factor 2 in chemotactic activity comparing the two peptides when FPR1 recognition was inhibited by CHIPS, likely attributable to FPR2-mediated recognition. Owing to the overall ∼10 times lower capacity to stimulate FPR receptors other than FPR2, we observed no chemotaxis at that peptide concentration with addition of the FPR2 blocking agent FLIPr.
(A) Differential activation of FPRs by PSMα3 versus PSMα3N22Y was measured using synthetic peptides and Ca^2+ flux observed in HL60 cells stably transfected with the corresponding FPR genes as readout, using three biological and two technical replicates. The calculated Kd values are shown on the right. […] (B) Ca^2+ flux in human neutrophils upon addition of PSMα3 or PSMα3N22Y and inhibition by FLIPr (FPR2 inhibitor) or CHIPS (FPR1 inhibitor). […]
Human neutrophils were isolated from venous blood of healthy donors as described, [39]. Neutrophil chemotaxis and Ca^2+ flux were determined as previously described, [24]. […] Chemotaxis of neutrophils was determined using a transwell system (Costar) with analysis of neutrophil migration using fluorescence labeling. Calcium fluxes were monitored as a surrogate marker for chemotaxis since it can be measured more robustly and accurately than chemotaxis. For measurement of Ca^2+ fluxes, 5×10^6 neutrophils/ml were labeled with a fluorescent dye and analyzed with a FACScalibur (Becton Dickinson) as described. […] Measurements of 2,000 events were performed and Ca^2+ flux was expressed as relative fluorescence corrected for buffer controls. […] At the desired times, PMN lysis was determined by release of lactate dehydrogenase (LDH) (Cytotoxicity Detection Kit, Roche Applied Sciences).

FPR3 = target: T2, FPR3 (Homo sapiens, UniProt P25089); experiment: Ca2+ flux in HL60 cells stably transfected with FPR3; conditions: one site-binding model from Ca2+ flux, synthetic peptides, three biological and two technical replicates, error = standard deviation
T2 construct: expressed in transfected cells; host or cells: HL60 cells, stably transfected
T2 sequence (P25089 1-353): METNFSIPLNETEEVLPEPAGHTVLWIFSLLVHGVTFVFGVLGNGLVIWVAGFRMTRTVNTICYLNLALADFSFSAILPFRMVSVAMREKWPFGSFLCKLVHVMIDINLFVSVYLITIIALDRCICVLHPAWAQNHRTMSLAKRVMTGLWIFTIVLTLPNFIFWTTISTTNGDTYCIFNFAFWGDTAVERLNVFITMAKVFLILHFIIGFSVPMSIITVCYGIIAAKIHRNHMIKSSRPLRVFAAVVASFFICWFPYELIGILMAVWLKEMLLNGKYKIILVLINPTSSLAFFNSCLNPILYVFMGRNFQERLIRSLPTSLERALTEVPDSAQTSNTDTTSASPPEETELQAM
Experimental: as §2, with “Owing to the overall ∼10 times lower capacity to stimulate FPR receptors other than FPR2, we observed no chemotaxis at that peptide concentration with addition of the FPR2 blocking agent FLIPr.” left out
(A) Differential activation of FPRs by PSMα3 versus PSMα3N22Y was measured using synthetic peptides and Ca^2+ flux observed in HL60 cells stably transfected with the corresponding FPR genes as readout, using three biological and two technical replicates. The calculated Kd values are shown on the right. […]
as §1, with “chemotaxis.” for “chemotaxis. For measurement of Ca^2+ fluxes, 5×10^6 neutrophils/ml were labeled with a fluorescent dye and analyzed with a FACScalibur (Becton Dickinson) as described.”

CSCC[C@H](NC=O)C(=O)N[C@@H](CCC(=O)O)C(=O)N[C@@H](Cc1ccccc1)C(=O)N[C@H](C(=O)N[C@@H](C)C(=O)N[C@@H](CCCCN)C(=O)N[C@@H](CC(C)C)C(=O)N[C@@H](Cc1ccccc1)C(=O)N[C@@H](CCCCN)C(=O)N[C@@H](Cc1ccccc1)C(=O)N[C@@H](Cc1ccccc1)C(=O)N[C@@H](CCCCN)C(=O)N[C@@H](CC(=O)O)C(=O)N[C@@H](CC(C)C)C(=O)N[C@@H](CC(C)C)C(=O)NCC(=O)N[C@@H](CCCCN)C(=O)N[C@@H](Cc1ccccc1)C(=O)N[C@@H](CC(C)C)C(=O)NCC(=O)N[C@@H](CC(N)=O)C(=O)N[C@@H](CC(N)=O)C(=O)O)C(C)C [PSMα3] was tested, and the “Capacity to cause neutrophil chemotaxis” value (human neutrophils) was “about twice higher than that caused by PSMα3N22Y at all tested concentrations”.
CSCC[C@H](NC=O)C(=O)N[C@@H](CCC(=O)O)C(=O)N[C@@H](Cc1ccccc1)C(=O)N[C@H](C(=O)N[C@@H](C)C(=O)N[C@@H](CCCCN)C(=O)N[C@@H](CC(C)C)C(=O)N[C@@H](Cc1ccccc1)C(=O)N[C@@H](CCCCN)C(=O)N[C@@H](Cc1ccccc1)C(=O)N[C@@H](Cc1ccccc1)C(=O)N[C@@H](CCCCN)C(=O)N[C@@H](CC(=O)O)C(=O)N[C@@H](CC(C)C)C(=O)N[C@@H](CC(C)C)C(=O)NCC(=O)N[C@@H](CCCCN)C(=O)N[C@@H](Cc1ccccc1)C(=O)N[C@@H](CC(C)C)C(=O)NCC(=O)N[C@@H](CC(N)=O)C(=O)N[C@@H](Cc1ccc(O)cc1)C(=O)O)C(C)C [PSMα3N22Y] was tested, and the “Differential activation of FPR receptors by the two peptides” value (FPR1; Ca2+ flux, transfected HL60 cells, not FPR2 and FPR3) was “only FPR1 was activated differentially”, the Kd (FPR1; one site-binding model from Ca2+ flux, synthetic peptides, FPR1-transfected HL60 cells, three biological and two technical replicates, error = standard deviation) was 3.04 ± 0.682 µM and the “Factor of difference in FPR1 Kd, PSMα3 versus PSMα3N22Y” value (FPR1; significant difference) was roughly 5. It also gave a Kd (FPR3) of 953 ± 254 nM.
